PubChem BioAssay AID179 (DTP/NCI, 2004)
pEC50, pIC50: −log10 of the molar value. The source made the active and inactive calls.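 How the source made its calls: active means compounds giving half or more protection of infected cells from virus-caused growth loss, again on retest; inactive means the rest.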 Where a SMILES comes first, the peptide text is derived from it. [ ]: non-standard residue; d: D form. The star is where a group is joined. X10 = CC(C)CN(C[C@@H](O)[C@H](Cc1ccc(OCC(=O)*)cc1)NC(=O)O[C@H]1CCOC1)S(=O)(=O)c1ccc(N)cc1; NMeLeu(3R-OH) = CN[C@H](C(=O)O)[C@H](O)C(C)C; NMeL = CN[C@@H](CC(C)C)C(=O)O; NMeV = CN[C@H](C(=O)O)C(C)C; dNMeS = CN[C@H](CO)C(=O)O; Abu = CC[C@H](N)C(=O)O

Test system: CEM cells HIV-1 protection, formazan growth assay
Assay: NCI AIDS Antiviral Assay
Conditions: for pIC50: measured here: growth of uninfected CEM cells
How it was run: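 Human CEM cells, uninfected and HIV-1-infected, received five drug concentrations, and growth was read by soluble formazan assay. Compounds giving at least 50% protection were retested; reproducible 100% protection defined confirmed active.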

Structure (SMILES)	pEC50	pIC50	outcome
COc1ccc(OC)c(/C=C/c2ccccc2)c1	7.20	3.96	
COc1ccc(/C=C2\NC(=S)N(CN3CCCCC3)C2=O)cc1	< 3.70	4.51	
CCC(C#N)NCc1ccc(CNC(C#N)CC)cc1 (stereo not given)	< 3.70	< 3.70	
O=C1CC2(CCN(Cc3ccccc3)CC2)CC(=O)N1	< 3.70	< 3.70	
Cc1cc2oc(C)c(S(=O)(=O)NC(=O)Nc3ccc(Cl)cc3)c(=O)c2c(=O)o1	< 3.70	3.97	
CCCCCCCCCCCCCCCC(=O)ON1C(=S)NC(C)(c2ccccc2)C1=S (stereo not given)	< 3.70	4.11	
O=C(/C(=N/Nc1ccc([N+](=O)[O-])cc1)c1ccccc1)c1ccccc1			inactive
C=CCC1(O)CC(n2cc(C)c(=O)[nH]c2=O)OC1CO[Si](C)(C)C(C)(C)C (stereo not given)	< 3.70	4.04	
NC(C(=O)O)C(O)C(=O)O (stereo not given)			inactive
O=c1c2ccccc2oc2cc([N+](=O)[O-])cc([N+](=O)[O-])c12	< 5.30	5.38	
COc1ccc2nc3c([N+](=O)[O-])ccc4c3c(c2c1)N(CCCN(C)C)C(=S)N4CCCN(C)C	< 5.70	6.27	
COc1ccc(-c2csc(=Nc3ccccc3)n2CCCN(C)C)cc1	< 3.70	4.79	
COc1cc(Br)c(CCC#N)cc1OC	< 3.46	4.43	
CCOC(=O)NC(Nc1ccc(Cl)cn1)(C(F)(F)F)C(F)(F)F	< 3.70	< 3.70	
COC(=O)C1=C(C(=O)OC)N(C(C)C)[C@H]2C(C(=O)OC)=C(C(=O)OC)N(C(C)C)[C@@H]12	< 5.61	< 5.61	
S=C1SC(c2ccc(Cl)cc2)(c2ccc(Cl)cc2)c2ccccc21	< 3.70	3.91	
Cc1ccc(NC(=S)/C(=C(/[O-])c2ccc([N+](=O)[O-])cc2)[n+]2ccccc2)c(C)c1	< 3.70	< 3.70	
O=C1NC2=C(CCCC/C2=N\O)C12CCCCC2			inactive
CN(C)C1C(=O)C(C(=O)NC[N+]23CCO[B-]2(c2ccc(Cl)cc2)OCC3)=C(O)C2(O)C(=O)C3=C(O)c4c(O)cccc4C(C)(O)C3CC12 (stereo not given)	< 4.56	< 4.56	
CCOC(=O)/C(=C\c1ccc([N+](=O)[O-])cc1)P(=O)(OCC)OCC	< 4.69	4.99	

Structure (SMILES)	pEC50	pIC50	outcome
Cc1nc(=O)n2c(c1C(=O)Nc1ccc(Cl)cc1)NCCC2			inactive
O=c1ccc(=O)n(CCc2ccccn2)[nH]1	< 3.70	< 3.70	
CC[C@@H]1NC(=O)[C@H]([C@H](O)C(C)C)N(C)C(=O)[C@H](C(C)C)N(C)C(=O)[C@H](CC(C)C)N(C)C(=O)[C@H](CC(C)C)N(C)C(=O)[C@@H](C)NC(=O)[C@H](CCCCNC(=O)COc2ccc(C[C@H](NC(=O)O[C@H]3CCOC3)[C@H](O)CN(CC(C)C)S(=O)(=O)c3ccc(N)cc3)cc2)NC(=O)[C@H](CC(C)C)N(C)C(=O)[C@H](C(C)C)NC(=O)[C@H](CC(C)C)N(C)C(=O)[C@@H](CO)N(C)C1=O (cyclo([NMeLeu(3R-OH)][Abu][dNMeS][NMeL]V[NMeL]K(X10)[dA][NMeL][NMeL][NMeV]))	7.30	4.37	
O=C1CC(c2c(-c3ccccc3)[nH]c3ccccc23)C(=O)N1 (stereo not given)			inactive
C=CCN(c1cc(OC)c(NC(C)=O)cc1[N+](=O)[O-])S(C)(=O)=O	< 3.70	< 3.70	
CC(C)=CCC1=C(O)C(CC=C(C)C)(CC=C(C)C)C(=O)C(C(=O)C(C)C)=C1O	< 4.47	5.15	
O=C(Nc1ccc(/C=C/c2ccc(NC(=O)c3ccc(N=Nc4cc(S(=O)(=O)O)c5cccnc5c4O)cc3)cc2S(=O)(=O)O)c(S(=O)(=O)O)c1)c1ccc(N=Nc2cc(S(=O)(=O)O)c3cccnc3c2O)cc1	4.75	< 4.00	
CC(=O)Nc1ccc2[nH]c(C(=O)N3CC(CCl)c4c3cc([N+](=O)[O-])c3ccccc43)cc2c1 (stereo not given)	< 5.70	5.77	
COP(=O)(OC)/C(=C\C1=CN(C(c2ccccc2)(c2ccccc2)c2ccccc2)CN1)NC=O	< 3.70	4.67	
CCCCCCCCCCCCn1[se]c2ccccc2c1=O	5.30	5.26	
CN(C)CCCNC(=O)c1cc(NC(=O)c2cc(NC(=O)c3cc(NC(=O)c4cncc(C(=O)Nc5cc(C(=O)Nc6cc(C(=O)Nc7cc(C(=O)NCCCN(C)C)n(C)c7)n(C)c6)n(C)c5)c4)cn3C)cn2C)cn1C	< 4.00	< 4.00	
CC(=O)[C@@H](C)C(=O)N1C(=O)OC[C@@]12[C@@H]1CC[C@@H](C1)C2(C)C	< 3.70	< 3.70	
Cc1ccc2nc(NC(=O)C(=O)C3C(=O)NC(=S)NC3=O)sc2c1	< 3.16	3.38	
CC1=Nn2c(nnc2-c2ccc(N)cc2)NC(C)(C)C1	< 3.03	< 3.03	
O=c1[nH]n(CCc2ccccn2)c(=O)c2ccccc12	< 3.70	< 3.70	
COc1cc(-c2cc(O)c(-c3ccc4ccccc4n3)c(=O)[nH]2)cc(OC)c1OC	< 6.03	< 6.03	
COc1ccc(N=C/C=C/C(=C/COC(C)=O)OC(C)=O)cc1	< 3.70	4.94	
N#C/C(=C/NC(N)=S)C(N)=O	< 3.70	< 3.70	
S=C(SSC(=S)N(Cc1ccccc1)Cc1ccccc1)N(Cc1ccccc1)Cc1ccccc1	< 3.70	4.82	
Cc1c(C(=O)Nc2ccc(Cl)c(C(F)(F)F)c2)oc2cc(O)ccc2/c1=N\NC(N)=S	< 3.28	3.95	
